Values joined by “and” are separate entries in the source; they are usually repeats but may differ in a detail not shown here. Equal values may be shown once.
Columns and labels:
[1] = target: T1, DHFR^Ser108 (reconstructed P. falciparum DHFR) (Plasmodium falciparum, UniProt P13922, N108S/R59C); test: Inhibition of recombinant DHFR activity, spectrophotometric assay with Dixon plot analysis; format: biochemical
T1 construct: The gene encoding DHFR part of the P. falciparum DHFR-TS complex; made in house; host or cells: E. coli JM103, plasmid pET-PfDHFR^Ser108 (pET-3a), induced with M13-pKM2
Excerpt: (§1) The decrease in A340 was monitored by a HITACHI spectrophotometer U-2000. The blank sample consisted of all the reaction components except the enzyme.

[2] = test system: DHFR^Thr108 (reconstructed P. falciparum DHFR); settings: Dixon plots for DHFR^Thr108 and DHFR^Ser108 (FIGS. 19A-19F)
Excerpt: as §1

[3] = test system: NC(=O)C1=CN([C@@H]2O[C@H](COP(=O)(O)OP(=O)(O)OC[C@H]3O[C@@H](n4cnc5c(N)ncnc54)[C@H](OP(=O)(O)O)[C@@H]3O)[C@@H](O)[C@H]2O)C=CC1; test: purified protein, by the assay type; settings: other: substrate Km, reconstructed P.f. DHFR Thr108 (Table IV); pH 7.6; 37.0 °C
[4] = target: SE47' recombinant SERA protein produced in E. coli (Plasmodium falciparum); test: ELISA of control mouse serum
[5] = target: SE50A recombinant SERA protein produced in E. coli (Plasmodium falciparum); test: ELISA of control rat serum
SE50A = test: ELISA value of rat sera immunized with recombinant SERA protein SE50A; format: in vivo; settings: individual rats 1-3; subcutaneous, insoluble form without adjuvant, days 1, 22, 50
Excerpt: The SE50A protein was produced in E. coli cells as described for SE47'. The products were obtained as an inclusion body in the precipitate of lysed cells. The precipitate was solubilized with a buffer containing 5M guanidine HCl. After removal of insoluble materials, SE50A protein was precipitated by removing the 5M guanidine HCl again. These processes were repeated 3 times. The final precipitate contained SE50A at more than 80% purity. Three rats were immunized by subcutaneous injection of the insoluble form of SE50A without adjuvant three times on days 1, 22, and 50.

[6] = test system: Plasmodium falciparum (FCR3); test: Plasmodium falciparum growth inhibition with anti-SERA serum; format: cell-based; settings: FCR3 culture, serum dilutions, parasitemia after 72 hours (FIGS. 16A-16B)
Description: FIGS. 16A and 16B show Plasmodium falciparum growth inhibition with anti-SER47' and anti-SE50A serum. […] The inhibition confirms that the new constructs of SERA (FIG. 10, FIG. 11, and FIG. 12) produce immunogenic material and that adjuvant enhances the induction of parasite inhibitory levels of antibodies.
The Plasmodium falciparum cell (FCR3) was grown in an in vitro culture containing 5% red blood cells (RBC). When the parasitized RBC, 96% were trophozoite and schizont, reached 4.4% of total RBC, the culture was diluted to 1% of parasitized cell in total RBC and 2% of RBC in medium. The 100 µl of the diluted culture was incubated in a 96 well dish. The culture media which contains rat or mouse serum at the indicated dilution were changed each 24 hours. Parasitemia was measured by Giemsa staining after 72 hours incubation. The sera used here were from the animal #3 of SE47' and #1 of SE50A, each of whose ELISA titer was described in Table VI.

SERA protein = test: Immunoblot of whole cellular proteins of Plasmodium falciparum FCR3 strain with antiserum against SE47' or SE50A; format: binding; settings: mouse anti-SE47' serum, rat anti-SE50A serum
Description: The antisera used for the immunoblot were as follows: lane 1, control mouse serum; lane 2, mouse anti-SF47' serum; lane 3, control rat serum; lane 4, rat anti-SE50A serum. The arrow indicates the molecular weight corresponding to SERA protein.
Parasite cells were isolated by saponin lysis of the in vitro culture. The prepared cells were analyzed by immunoblotting using SDS-polyacrylamide gel electrophoresis (12.5%). The antisera used for the immunoblot (FIG. 15) were as follows: lane 1, control mouse serum; lane 2, mouse #3 anti-SE47' serum; lane 3, control rat serum; lane 4, rat #1 anti-SE50A serum. The arrow indicates the molecular weight corresponding to SERA protein.

[7] = substrate Km of DHFR^Ser108, as stated in text
[8] = substrate Km, reconstructed P.f. DHFR Ser108 (Table IV)

## Nc1nc2c(c(=O)[nH]1)N=C(CNc1ccc(C(=O)N[C@@H](CCC(=O)O)C(=O)O)cc1)CN2 [DHF]
[1]; [7]
  Km: 67 µM
[1]; [8]
  Km: 66.6 ± 2.6 µM

## NC(=O)C1=CN([C@@H]2O[C@H](COP(=O)(O)OP(=O)(O)OC[C@H]3O[C@@H](n4cnc5c(N)ncnc54)[C@H](OP(=O)(O)O)[C@@H]3O)[C@@H](O)[C@H]2O)C=CC1 [NADPH]
[1]; [7]
  Km: 90 µM
[1]; [8]
  Km: 90.2 ± 4.3 µM

## CN(Cc1cnc2nc(N)nc(N)c2n1)c1ccc(C(=O)N[C@@H](CCC(=O)O)C(=O)O)cc1 [methotrexate]
[2]
  manner of enzyme inhibition: competitive

## CCc1nc(N)nc(N)c1-c1ccc(Cl)cc1 [pyrimethamine]
[2]
  manner of enzyme inhibition: competitive

## DHFR^Thr108 (reconstructed P. falciparum DHFR) (Plasmodium falciparum K1; N108T/R59C)
[3]
  Km: 19.2 ± 0.4 µM

## control mouse serum (polyclonal serum or antibody)
[4]
  ELISA Titer: < 200

## control rat serum (polyclonal serum or antibody)
[5]
  ELISA Titer: < 50

B1: SE50A: recombinant portion of the 50 kd processed SERA protein, SEQ ID NO: 17, produced in E. coli as inclusion body (protein)
chain: MKDENNCISNLQVEDQGNCDTSWIFASKYHLETIRCMKGYEPTKISALYVANCYKGEHKDRCDEGSSPMEFLQIIEDYGFLPAESNYPYNYVKVGEQCPKVEDHWMNLWDNGKILHNKNEPNSLDGKGYTAYESERFHDNMDAFVKIIKTEVMNKGSVIAYIKAENVMGYEFSGKKVQNLCGDDTADHAVNIVGYGNYVNSEGEKKSYWIVRNSWGPYWGDEGYFKVDMYGPTHCHIEF
SE50A
  ELISA Titer: 10,000 and 8,330
[6]
  parasite growth inhibition by antiserum raised against the protein: indistinguishable from control serum except at the lowest dilution
SERA protein
  recognition of SERA protein by antiserum in immunoblot: recognize the complete SERA protein

Reference: patent US6333406A, “Gene encoding protein antigens of Plasmodium falciparum and uses therefor” (priority 1994, dated 2001)
